According to patent US20240199722A1, “NANOPLATFORM FOR TARGETING MACROPHAGE AND COMPOSITION FOR PREVENTION OR TREATMENT OF METASTATIC CANCER” (SEOUL NATIONAL UNIVERSITY R&DB FOUNDATION, priority 2021, published 2024):

Test system: macrophages at lung metastatic site
Experiment: Early diagnosis of cancer metastasis in the 4T1-luc model: FDG-PET versus 111In-MSA-FL SPECT/CT (FIG. 8)
Assay type: in vivo, mouse
Text: In order to verify the possibility of early diagnosis of cancer metastasis of the albumin-based nanoplatform conjugated with the mannosyl group, a model that may represent cancer metastasis was reproduced and confirmed through tissue staining whether it could actually reflect metastasis.
This animal model is known to naturally cause metastasis to secondary organs after transplanting cancer cells into mice, and is especially known to cause metastasis to the lung area, similar to the pattern of existing breast cancer.

SMILES: OC[C@H]1O[C@@H](O)[C@H]([18F])[C@@H](O)[C@@H]1O [FDG]
- time at which cancer metastasis could be diagnosed (day after modeling): 28 days
- nuclear medicine signal/image in the lung area before metastasis (imaging on days 7, 14, 21, 28): could hardly be confirmed
- uptake at the metastatic site, statistical significance (quantification FIG. 8(b)): statistically significant difference only on Day 28
